# In PubChem BioAssay (NCI):
#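 48-hour exposure; five concentrations; linearly interpolated endpoints. GI50: concentration for 50% inhibition of growth. At the TGI there is no net growth.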
# Legend:
# Test in all cases: NCI tumour cell line growth inhibition, 48 h
# [1] = tested on: NCI-H226 lung
# [2] = tested on: SF-539 CNS
# [3] = tested on: OVCAR-5 ovarian
# [4] = tested on: UACC-62 melanoma
# [5] = tested on: HS 578T breast
# [6] = tested on: RXF 393 renal
# [7] = tested on: SN12C renal
# [8] = tested on: M14 melanoma
# [9] = tested on: NCI/ADR-RES ovarian
# [10] = tested on: NCI-H460 lung
# [11] = tested on: COLO 205 colon
# [12] = tested on: TK-10 renal
# [13] = tested on: SK-MEL-2 melanoma
# [14] = tested on: SK-OV-3 ovarian
# [15] = tested on: MDA-MB-468 breast
# [16] = tested on: MALME-3M melanoma
# [17] = tested on: HCC-2998 colon
# [18] = tested on: OVCAR-4 ovarian
# [19] = tested on: SR leukemia
# [20] = tested on: SNB-19 CNS
# [21] = tested on: NCI-H522 lung
# [22] = tested on: UO-31 renal
# [23] = tested on: OVCAR-8 ovarian
# [24] = tested on: HCT-15 colon
# [25] = tested on: HOP-92 NSCLC
# [26] = tested on: HOP-62 NSCLC
# [27] = tested on: SF-295 CNS
# [28] = tested on: K-562 leukemia
# [29] = tested on: KM12 colon
# [30] = tested on: 786-0 renal
compound,measurement,setting,value
CCCCSc1nc(Nc2ccc(/C(C)=N/NC(N)=S)cc2)c(C#N)c(-c2ccc(OC)cc2)n1,TGI,[1],27.5 µM
same,GI50,[2],3.14 µM
same,TGI,[2],12.8 µM
same,GI50,[3],28.1 µM
same,TGI,[3],93.9 µM
same,GI50,[4],15.6 µM
same,TGI,[4],34.1 µM
same,GI50,[5],2.78 µM
same,TGI,[5],16.4 µM
same,GI50,[6],5.2 µM
same,TGI,[6],18.1 µM
same,GI50,[7],18.7 µM
same,TGI,[7],37 µM
same,GI50,[8],8.52 µM
same,TGI,[8],> 100 µM
same,GI50,[9],5.76 µM
same,TGI,[9],> 100 µM
same,GI50,[10],9.33 µM
same,TGI,[10],31.1 µM
same,GI50,[11],> 100 µM
same,TGI,[11],> 100 µM
same,GI50,[12],13.8 µM
same,TGI,[12],27.4 µM
same,GI50,[13],26.3 µM
same,TGI,[13],85.4 µM
same,GI50,[14],18 µM
same,TGI,[14],32.1 µM
same,GI50,[15],18.1 µM
same,TGI,[15],49.1 µM
same,GI50,[16],5.85 µM
same,TGI,[16],20 µM
same,GI50,[17],78.4 µM
same,TGI,[17],> 100 µM
same,GI50,[18],6.45 µM
same,TGI,[18],62.4 µM
same,GI50,[19],57.1 µM
same,TGI,[19],> 100 µM
same,GI50,[20],14.3 µM
same,TGI,[20],27.3 µM
same,GI50,[21],13.9 µM
same,TGI,[21],28.6 µM
same,GI50,[22],2.81 µM
same,TGI,[22],18.6 µM
same,GI50,[23],10.8 µM
same,TGI,[23],24 µM
same,GI50,[24],> 100 µM
same,TGI,[24],> 100 µM
same,GI50,[25],5.36 µM
same,TGI,[25],21.1 µM
same,GI50,[26],15.6 µM
same,TGI,[26],30.1 µM
same,GI50,[27],10.1 µM
same,TGI,[27],22.6 µM
same,GI50,[28],> 100 µM
same,TGI,[28],> 100 µM
same,GI50,[29],> 100 µM
same,TGI,[29],> 100 µM
same,GI50,[30],3.07 µM
same,TGI,[30],10.9 µM
